According to PMC8308625, “Preclinical Studies in Anti-Trypanosomatidae Drug Development” (Pharmaceuticals, 2021):
Like-named read-outs stand apart in the source and are kept apart here.

Legend:
[1] = Nonspecific cytotoxicity in murine macrophages (MTT); details: mouse, J774.1 murine macrophages
Method: (§1) Cell viability was then assessed using the 3-(4,5-dimethylthiazol-2-yl)-2,5-diphenyltetrazolium bromide (MTT) colorimetric assay [1]. […] All assays were performed in triplicate [35].

T. b. brucei = details: ref Duffy et al., 2017; read-out: EC50 T. brucei brucei; cited from earlier work
T. cruzi [2] = tested on: T. cruzi; parameters: method as in Duffy et al., 2017; details: ref Duffy et al., 2017; cited from earlier work
P. falciparum = details: cited from earlier work
[3] = tested on: L. infantum veterinary isolate (MCAN_UY_2015_gPL8); test: Growth inhibition of L. infantum veterinary isolate promastigotes (resazurin); details: for Selectivity Index MΦ/Veterinary: EC50 J774.1 macrophages versus L. infantum veterinary isolate; for EC50: Leishmania infantum, read-out: EC50 L. infantum Veterinary
[4] = tested on: Leishmania donovani (amastigotes); details: cited from earlier work
[5] = tested on: L. infantum reference strain (MHOM/BR/2002/LPC-RPV); test: Growth inhibition of L. infantum reference strain promastigotes (resazurin); details: for Selectivity Index MΦ/Reference: EC50 J774.1 macrophages versus L. infantum reference strain; for EC50: Leishmania infantum, read-out: EC50 L. infantum Reference
[6] = tested on: hepatocellular carcinoma (HepG2) cell line; details: cited from earlier work
[7] = target: Neuropeptide S receptor isoform A; parameters: method as in pubchem.ncbi.nlm.nih.gov; details: ref pubchem.ncbi.nlm.nih.gov; cited from earlier work
C. albicans = tested on: C. albicans; parameters: method as in pubchem.ncbi.nlm.nih.gov; details: ref pubchem.ncbi.nlm.nih.gov; read-out: EC50 C. albicans Growth in the Presence of Fluconazole; cited from earlier work
Hsf1 protein = tested on: Hsf1 protein; parameters: method as in pubchem.ncbi.nlm.nih.gov; details: ref pubchem.ncbi.nlm.nih.gov; cited from earlier work
[8] = tested on: Cell division cycle 42 (GTP binding protein, 25kDa); parameters: method as in pubchem.ncbi.nlm.nih.gov; details: ref pubchem.ncbi.nlm.nih.gov; cited from earlier work
Replicative DNA helicase = target: Replicative DNA helicase; parameters: method as in pubchem.ncbi.nlm.nih.gov; details: ref pubchem.ncbi.nlm.nih.gov; cited from earlier work
[9] = target: Sphingosine-1-phosphate receptor 4; parameters: method as in pubchem.ncbi.nlm.nih.gov; details: ref pubchem.ncbi.nlm.nih.gov; cited from earlier work
[10] = parameters: method as in data provided by the DNDi program, non-published; details: ref data provided by the DNDi program, non-published; cited from earlier work
[11] = target: Aldehyde dehydrogenase 1 family, member A1; parameters: method as in pubchem.ncbi.nlm.nih.gov; details: ref pubchem.ncbi.nlm.nih.gov; cited from earlier work
Candida albicans Biofilm = tested on: Candida albicans Biofilm; parameters: method as in Vila and Lopez-Ribot, 2017; details: ref Vila and Lopez-Ribot, 2017; read-out: EC50 Candida albicans Biofilm Inhibitor; cited from earlier work
[12] = tested on: J774.1 murine macrophages; test: Nonspecific cytotoxicity in murine macrophages (MTT); details: Mus musculus, J774.1, read-out: EC50 ± SD MΦ
Method: as §1

L. braziliensis = details: Table 3, thiazolidene hydrazines; ref [13],[16],[19],[23],[25]; read-out: EC50 ± SD L. brazils; cited from earlier work
T. cruzi [13] = details: Table 3, thiazolidene hydrazines; ref [13],[16],[19],[23],[25]; read-out: EC50 ± SD T. cruzi; cited from earlier work
[14] = tested on: L. infantum reference strain (MHOM/BR/2002/LPC-RPV); details: cited from earlier work
[15] = tested on: L. infantum veterinary isolate (MCAN_UY_2015_gPL8); details: cited from earlier work
L. amazonensis = test: Growth inhibition of L. amazonensis promastigotes (resazurin); details: EC50 mammalian cell line/EC50 L. amazonensis

For `c1ccc(-c2nc(NC3CCCCC3)cc(C3CC3)n2)nc1` [MMV021013, N-Cyclohexyl-6-cyclopropyl-2-pyridin-2-ylpyrimidin-4-amine], the EC50 at 48 h [1] is listed as greater than 50 µM, the EC50 (T. b. brucei) is listed as 3500 nM and the EC50 (T. cruzi [2]) is listed as 1700 nM. For the same molecule, the EC50 (P. falciparum; ref Ballell et al., 2013, read-out: EC50 P. falciparum) was 700 nM, the “Selectivity Index MΦ/Veterinary” value [3] was greater than 167 and the EC50 [3] was 300 ± 100 nM. For the same molecule, the EC50 ([4]; ref Peña et al., 2015) was 800 nM, the “activity against the L. donovani form found in a mammalian host” value ([4]; ref [23],[24]) was “significant activity” and the “Selectivity Index MΦ/Reference” value [5] was greater than 125. For the same molecule, the EC50 [5] was 400 ± 100 nM and the EC50 ([6]; ref Peña et al., 2015, read-out: EC50 HepG2 human cell line) was 400 µM.
For `COc1cccc(-n2nnnc2S(C)(=O)=O)c1` [MMV272144, 1-(3-Methoxyphenyl)-5-(methylsulfonyl)-1H-tetrazole], the EC50 at 48 h [1] is listed as greater than 50 µM, the EC50 [7] is listed as 10 µM and the EC50 (C. albicans) is listed as 1800 nM. For the same molecule, the EC50 (Hsf1 protein) was 6.6 µM, the EC50 [8] was 15 µM and the EC50 (Replicative DNA helicase) was 3.1 µM. For the same molecule, the EC50 [9] was 1300 nM, the “Selectivity Index MΦ/Veterinary” value [3] was greater than 42 and the EC50 [3] was 1200 ± 100 nM. The in vivo absorption [10] was “low”, the metabolic stability [10] was “low” and the “Selectivity Index MΦ/Reference” value [5] was greater than 21. For the same molecule, the EC50 [5] was 2400 ± 300 nM and the EC50 [11] was 12.5 µM.
In the case of `Cc1[nH]c2ccccc2c1[C@H](c1cccs1)N1CCN(C)CC1` [MMV688768, 2-Methyl-3-[(R)-(4-methylpiperazin-1-yl)-thiophen-2-ylmethyl]-1H-indole], the EC50 at 48 h [1] is given as greater than 50 µM, the EC50 (T. b. brucei) is given as 1500 nM and the EC50 (P. falciparum; ref Duffy et al., 2017, read-out: EC50 P. falciparum ABS activity) is given as 4700 nM. For the same molecule, the “Selectivity Index MΦ/Veterinary” value [3] was greater than 7, the EC50 [3] was 6800 ± 100 nM and the EC50 (Candida albicans Biofilm) was 3.1 µM. For the same molecule, the “Selectivity Index MΦ/Reference” value [5] was greater than 5, the EC50 [5] was 9800 ± 500 nM and the EC50 ([6]; ref Vila and Lopez-Ribot, 2017, read-out: EC50 HepG2 cell line) was 32 µM.
In the case of `CCCCCCCCCCCCCCCCOP(=O)([O-])OCC[N+](C)(C)C` [Miltefosine, reference compound], the EC50 [12] is given as 50 ± 7 µM, the EC50 at 48 h [1] is given as 50 ± 7 µM and the EC50 (L. braziliensis) is given as 5 ± 2 µM. The EC50 (T. cruzi [13]) was 8 ± 2 µM, the EC50 ([14]; Miltefosine comparative data, ref [19], read-out: EC50 L. infantum Reference) was 5.3 ± 0.1 µM and the EC50 ([14]; Table 3, Miltefosine control, footnote f, ref [13],[16],[19],[23],[25], read-out: EC50 ± SD Lin–Ref) was 5.3 ± 0.1 µM. The “Selectivity Index MΦ/Veterinary” value [3] was 12, the “Selectivity Index MΦ/Lin–Vet” value ([3]; EC50 mammalian cell line/EC50 L. infantum veterinary isolate) was 10 and the EC50 ([15]; Miltefosine comparative data, ref [19], read-out: EC50 L. infantum Veterinary) was 4.1 ± 0.1 µM. The EC50 ([15]; Table 3, Miltefosine control, footnote f, ref [13],[16],[19],[23],[25], read-out: EC50 ± SD Lin–Vet) was 4.1 ± 0.1 µM, the “Selectivity Index MΦ/L. amaz” value (L. amazonensis) was 10 and the “Selectivity Index MΦ/Reference” value [5] was 10.
